Laboratory results taken from patent US20250298027A1, “METHOD OF EVALUATING SMALL MOLECULE DISTRIBUTION USING TELLUROPHENE ANALOGUES” (THE GOVERNING COUNCIL OF THE UNIVERSITY OF TORONTO, priority 2022, published 2025).

Assays:
Top2 = target: T1, Top2 (Homo sapiens, UniProt P11388); assay: Top2 decatenation assay using kinetoplast DNA; type: biochemical
T1 construct: purchased TopoGEN, Inc
Procedure: The relative Top2 inhibitory activity of 1 in comparison to teniposide was evaluated in decatenation assays using kinetoplast DNA (kDNA). Decatenation of the DNA, catalyzed by Top2, can be readily resolved using agarose gel electrophoresis.
Top2 decatenation assay: The assay was performed according to manufacturer's protocol (TopoGEN, Inc.). The total reaction volume was 20 μL of assay buffer (120 mM KCl, 50 mM Tris-HCl, 10 mM MgCl2, 0.5 mM DTT, 0.5 mM ATP, and 30 μg/mL BSA) and 120 ng of kinetoplast DNA (kDNA) substrate. One unit of TopoII enzyme in was added to reaction microfuge tubes in the presence or absence of inhibitor. The reaction was incubated for 30 min at 37° C. The reaction was stopped by addition of 5 μL of stop buffer (5% sarkosyl, 0.025% bromophenolblue, and 50% glycerol). The samples were then analyzed using electrophoresis using a 1% agarose gel in Tris-borate-EDTA buffer with 0.5 pg/mL ethidium bromide stain. Gels were imaged using Syngene G: Box Gel Imager (Chemi-XT4 GENESys software with preset for ethidium bromide stained agarose gels). Band intensities were analyzed using ImageJ software.

HL-60 cells [1] = assay: WST-1 viability assay in HL-60 cells; type: cell-based; conditions: Homo sapiens, HL-60, 24 h, read-out: inhibition of proliferation of HL-60 cells
Procedure: The toxicity of 1 was compared to teniposide in HL-60 cells after incubation for 24 hours using a WST-1 viability assay.
WST-1 metabolic cytotoxicity assay: HL-60 cells (ATCC® CCL-240TM) were maintained in DMEM media with 2 mM L-glutamine (Gibco) supplemented with 20% calf serum and 100× dilution of penicillin-streptomycin solution (Gibco). Cells were maintained at 37° C. in a humidified atmosphere of 5% CO2 in air. HL-60 cells (100 pL) were seeded into a 96 well clear at a density of 5×10^5 cells/mL. Cells were treated with either DMSO or appropriate inhibitor from DMSO stocks. […] Cells were incubated for 24 h at 37° C. under a 5% CO2 atmosphere. WST-1 reagent (10 pL; Roche Diagnostics, 05015944001) was added to each well and gently mixed by pipetting. Cells were incubated for 1 h at 37° C. under 5% CO2 atmosphere. UV-vis absorbance measurements of each well at 450 nm was recorded using a TECAN Safire 2 plate reader. Data was background corrected against wells that contained cell growth media without cells and WST-1. Experiment was performed in triplicate.

HL-60 cells [2] = assay: Competitive binding / cell labelling by mass cytometry (CyTOF) in HL-60 cells; type: cell-based
Procedure: To determine if cellular labelling with 1 was dependent on the presence of Top2-DNA binding sites a competitive binding MC experiment was carried out using Teniposide. HL-60 cells were treated with teniposide (10 μM) for two hours to saturate intracellular Top2-DNA ternary complexes with an unlabelled ligand, next 1 (2 or 10 μM) was introduced into the cell media and the suspension was gently mixed. After two hours, cells were harvested and washed three times with PBS. Cells were then fixed and permeabilized, followed by DNA staining with Ir-intercalator. Cell pellets were analyzed by MC for ^130Te content (FIG. 6).
Additionally, co-incubation experiments were conducted where HL-60 cells were treated with a cocktail of 1 (2 μM) and either 2, 10, or 20 μM teniposide (FIG. 6B). […] Without wishing to be bound by theory, it is hypothesized that the lack of competitive labelling observed in these experiments may be due to a combination of inhibition of Top2 and a considerable degree of non-specific binding with other cellular components. Several reports have documented the non-specific accumulation of etoposide and teniposide via oxidation catalyzed by cytochrome P450-dependent monooxygenases, peroxidases and tyrosinase enzymes. […] It is also plausible these reactive species modify other intracellular proteins, thus contributing to drug accumulation inside cells, but in a promiscuous and irreversible manner. […] In this case, the non-specific binding may dominate the target binding of teniposide, and likely its analogue Te-teniposide 1.
CYTOF® labelling: For pre-saturation experiment, 3×10^6 HL-60 cells (5×10^5 cells/mL) were incubated with appropriate teniposide concentration for 2 hours at 37° C. in a humidified atmosphere of 5% CO2 in air. Compound 1 was pipetted into the cell suspension and gently mixed. Cells were further incubated for 2 hours and then centrifuged for 6 min at 300×g, and the media was aspirated. For controls, HL-60 cells were treated with teniposide or compound 1 for 4 hours consecutively. […] Samples were then injected into the CYTOF® Helios™ and analyzed.

pH2AX^Ser139 = assay: pH2AX immunohistochemistry of PANC-1 xenograft tumour sections; type: in vivo, mice; conditions: 20 mg/kg IP, 2 hours
Procedure: PANC-1 xenograft-bearing mice were injected with either teniposide or the Te-teniposide analogue 1 IP. A dose of 20 mg/kg was selected based on literature reports detailing teniposide drug delivery strategies. After 2 hours, mice were sacrificed and tissues of interest were harvested, formalin fixed, and paraffin embedded. Tissue sections (5 um) were cut and mounted onto microscopy slides. The expression of pH2AX^Ser139 levels were first assessed by immunohistochemistry. Serial sections derived from PANC-1 xenograft tumours were stained with primary antibody and subsequently HRP-conjugated secondary antibody for standard brown staining. DSBs are indicated by large, discrete pH2AX^Ser139 foci. Representative images of immunostained slides show increased pH2AX^Ser139 levels in treated mice relative to saline injected control with clear, punctate staining (FIG. 7).

[3] = IMC analysis of tellurium in PANC-1 xenograft tumour sections
Excerpt: For IMC™ analysis, the initial objective was to visualize tellurium signal distribution in tumour sections and subsequently measure relative tellurium content in individual cells. Tumour sections were dewaxed, rehydrated and washed. Slides then were stained with Ir-intercalator to visualize cell nuclei, and then imaged by IMC™. The ^125Te isotope was visualised. […] Without wishing to be bound by theory, it was hypothesized that the processing of the FFPE tissues contributes to loss of tellurium signal as the teniposide interaction with the cells is largely non-covalent, thus the multiple wash steps required for dewaxing (xylene and ethanol washes) might have removed bound 1. To reduce the number of tissue processing steps, snap frozen samples prepared from the same tumours were sectioned and analyzed by IMC™.
To determine the corresponding concentration of Te present in the sample a set of standards containing increasing concentrations of Te were analyzed by IMC™. Based on the total counts present in each standard Te spot a count/Te atom constant was calculated (FIG. 8E).
Generation of murine PANC-1 xenograft model: All 6-week-old female NOD SCID mice (Charles River (Wilmington, MA) were maintained under specific pathogen-free (SPF) conditions at the Princess Margaret Cancer Centre (PMCC) facility. All animal experiments in this study were performed in accordance with the Animal Research Committee guidelines of the University Health Network institution. The subcutaneous PANC-1 xenograft mice were generated as described previously in Telox studies. The vehicle was prepared as follows: 30 mg benzyl alcohol, 60 mg N,N-dimethylacetamide, 500 mg purified Cremophor EL (Kolliphor EL), and 2.1 mL dehydrated alcohol were combined in a vial. The solution was topped with distilled water for a final volume of 5 mL. The pH of the clear solution is adjusted to pH ˜5 with maleic acid. For injections, drug was diluted with vehicle for a final concentration of 10 mg/mL and administered at 20 mg/kg by I.P. The mice were maintained in three groups; group 1 mice were injected with teniposide, group 2 received 1, and group 3 with normal saline. After 2 hours, mice were scarified, and tumors were extracted. […]

T1 sequence (P11388 whole entry): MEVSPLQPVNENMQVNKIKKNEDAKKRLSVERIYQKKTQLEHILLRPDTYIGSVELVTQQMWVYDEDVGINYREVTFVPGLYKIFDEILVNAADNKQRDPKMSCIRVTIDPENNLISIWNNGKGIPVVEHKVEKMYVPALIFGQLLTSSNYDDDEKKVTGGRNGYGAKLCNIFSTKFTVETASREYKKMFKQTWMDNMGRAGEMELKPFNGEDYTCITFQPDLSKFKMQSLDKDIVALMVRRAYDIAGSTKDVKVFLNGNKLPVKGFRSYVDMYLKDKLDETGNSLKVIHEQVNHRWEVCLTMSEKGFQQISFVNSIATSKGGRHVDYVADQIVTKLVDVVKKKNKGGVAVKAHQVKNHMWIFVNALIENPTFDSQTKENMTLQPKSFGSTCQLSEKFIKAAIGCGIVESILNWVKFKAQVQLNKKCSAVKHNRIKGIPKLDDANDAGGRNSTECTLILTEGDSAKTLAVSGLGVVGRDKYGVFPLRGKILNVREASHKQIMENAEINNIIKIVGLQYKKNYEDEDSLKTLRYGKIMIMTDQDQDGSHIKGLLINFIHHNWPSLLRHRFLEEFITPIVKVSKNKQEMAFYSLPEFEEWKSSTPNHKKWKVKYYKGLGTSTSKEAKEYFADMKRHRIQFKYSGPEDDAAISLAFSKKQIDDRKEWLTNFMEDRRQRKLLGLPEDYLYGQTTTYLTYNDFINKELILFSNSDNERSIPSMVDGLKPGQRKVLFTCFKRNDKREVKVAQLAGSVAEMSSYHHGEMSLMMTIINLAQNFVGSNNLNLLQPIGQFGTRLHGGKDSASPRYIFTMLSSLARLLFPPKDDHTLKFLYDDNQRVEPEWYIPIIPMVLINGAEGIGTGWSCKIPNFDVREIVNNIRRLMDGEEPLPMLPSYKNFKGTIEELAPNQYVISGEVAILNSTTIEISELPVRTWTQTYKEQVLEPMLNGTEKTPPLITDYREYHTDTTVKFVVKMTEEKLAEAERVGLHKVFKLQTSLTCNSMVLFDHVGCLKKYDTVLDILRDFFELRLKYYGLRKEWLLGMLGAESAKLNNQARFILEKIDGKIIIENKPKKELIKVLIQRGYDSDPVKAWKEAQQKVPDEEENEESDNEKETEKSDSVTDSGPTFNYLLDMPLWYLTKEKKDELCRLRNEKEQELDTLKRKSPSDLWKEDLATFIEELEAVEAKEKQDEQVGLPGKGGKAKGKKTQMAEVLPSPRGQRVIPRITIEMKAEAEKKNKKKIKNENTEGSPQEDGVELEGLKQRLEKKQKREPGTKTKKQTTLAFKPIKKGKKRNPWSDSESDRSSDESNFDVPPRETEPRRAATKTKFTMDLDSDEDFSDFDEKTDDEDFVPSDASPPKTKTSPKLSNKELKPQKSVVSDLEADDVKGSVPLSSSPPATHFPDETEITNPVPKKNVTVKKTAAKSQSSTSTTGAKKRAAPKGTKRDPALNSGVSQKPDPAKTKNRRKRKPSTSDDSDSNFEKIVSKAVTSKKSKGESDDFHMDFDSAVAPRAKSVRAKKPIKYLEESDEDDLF

## COc1cc([C@@H]2c3cc4c(cc3[C@@H](OC3OC5COC(c6ccc[te]6)OC5C(O)C3O)[C@H]3COC(=O)C23)OCO4)cc(OC)c1O (some centres unmarked) [Compound 1, Tellurium-labelled teniposide]
Top2
  IC50: 5.6 µM
Top2; 5, 10, 25 and 50 μM
  inhibition of the decatenation reaction: dose-dependent inhibition
HL-60 cells [1]
  inhibition at 50 µM: ≤ 60%
HL-60 cells [2]; 1 (2 μM) with 2, 10 or 20 μM teniposide
  competition for Top2 in co-incubation: no competition
HL-60 cells [2]; 2 and 10 μM
  cell labelling (^130Te) by MC: readily detected
HL-60 cells [2]; teniposide 10 μM for two hours, then 1 at 2 or 10 μM for two hours
  reduction of ^130Te signal in cells pretreated with unlabeled teniposide: not observed
pH2AX^Ser139
  pH2AX^Ser139 levels in tumour sections relative to saline injected control: increased
[3]; 20 mg/kg IP, 2 h before sacrifice, frozen sections
  ^125Te signal in snap frozen tumour sections by IMC: signals were observed
[3]; 20 mg/kg IP, 2 hours, FFPE sections, ^125Te
  Te signal in FFPE tumour sections by IMC: no Te signal above background
[3]; frozen sections, later timepoints
  Te signal in samples collected at later timepoints after dosing: not observed
[3]; frozen tumour sections, at the time of analysis, no precise value
  average concentration in the tissue: low tens
